Data from ChEMBL document CHEMBL3871261, “Novel pyrazolo[3,4-d]pyrimidines as dual Src-Abl inhibitors active against mutant form of Abl and the leukemia K-562 cell line” (Eur J Med Chem, 2016).

What was measured:
Homo sapiens = species: Homo sapiens; test: Inhibition of recombinant PI3K (unknown origin) assessed as residual activity at 100 uM by [gamma-32P]ATP based assay
[1] = Cytotoxicity against human K562 cells assessed as decrease in cell viability by MTT assay; type: functional
[2] = biological target: Tyrosine-protein kinase ABL1 (Homo sapiens, UniProt P00519); test: Inhibition of wild type recombinant human Abl using abtide as substrate by [gamma-32P]ATP based assay
Sequence of Tyrosine-protein kinase ABL1 (P00519 whole entry): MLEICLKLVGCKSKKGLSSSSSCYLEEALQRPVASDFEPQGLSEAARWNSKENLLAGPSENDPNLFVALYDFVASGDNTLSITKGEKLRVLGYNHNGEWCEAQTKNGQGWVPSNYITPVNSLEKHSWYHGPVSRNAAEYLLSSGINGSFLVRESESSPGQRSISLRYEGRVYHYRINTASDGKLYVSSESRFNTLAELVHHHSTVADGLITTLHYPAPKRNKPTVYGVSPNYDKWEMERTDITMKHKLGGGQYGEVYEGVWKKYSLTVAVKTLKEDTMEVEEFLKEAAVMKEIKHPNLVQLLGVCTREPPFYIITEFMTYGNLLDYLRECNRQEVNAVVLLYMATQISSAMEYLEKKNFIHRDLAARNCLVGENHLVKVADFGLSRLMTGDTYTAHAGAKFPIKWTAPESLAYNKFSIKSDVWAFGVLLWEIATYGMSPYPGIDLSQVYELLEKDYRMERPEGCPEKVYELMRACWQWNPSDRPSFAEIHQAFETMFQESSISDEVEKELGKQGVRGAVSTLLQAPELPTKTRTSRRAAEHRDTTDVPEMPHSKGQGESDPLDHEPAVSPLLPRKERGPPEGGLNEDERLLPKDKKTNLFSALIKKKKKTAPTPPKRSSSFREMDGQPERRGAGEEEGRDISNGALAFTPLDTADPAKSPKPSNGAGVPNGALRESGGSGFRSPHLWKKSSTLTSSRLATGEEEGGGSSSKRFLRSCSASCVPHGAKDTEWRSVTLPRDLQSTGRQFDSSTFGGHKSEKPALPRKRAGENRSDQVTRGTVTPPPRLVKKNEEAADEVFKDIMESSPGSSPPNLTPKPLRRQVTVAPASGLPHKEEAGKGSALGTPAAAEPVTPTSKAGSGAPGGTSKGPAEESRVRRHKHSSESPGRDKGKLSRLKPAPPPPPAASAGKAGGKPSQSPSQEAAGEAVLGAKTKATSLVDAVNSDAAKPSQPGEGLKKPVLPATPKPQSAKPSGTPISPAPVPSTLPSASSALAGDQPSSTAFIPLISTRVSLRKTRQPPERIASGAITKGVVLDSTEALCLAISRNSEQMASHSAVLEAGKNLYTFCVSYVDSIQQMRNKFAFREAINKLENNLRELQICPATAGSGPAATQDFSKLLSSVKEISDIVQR

Activity (Homo sapiens) | IC50 [2] | SMILES | CC50 [1]
82% | – | O=c1c2cnn(-c3ccccc3)c2n2c(-c3ccccc3)nnc2n1-c1ccccc1 | 920 nM
– | 150000 nM | O=c1c2cnn(-c3ccccc3)c2n2c(Nc3ccccc3)nnc2n1-c1ccccc1 | 4920 nM
100% | – | O=C(NNc1nc2c(cnn2-c2ccccc2)c(=O)n1-c1ccccc1)c1ccccc1 | 70 nM
90% | – | COc1ccc(-c2nnc3n(-c4ccccc4)c(=O)c4cnn(-c5ccccc5)c4n23)cc1 | 1060 nM

Second part, the compound before the results:

SMILES | Activity (Homo sapiens) | IC50 [2] | CC50 [1]
COc1ccc(C(=O)NNc2nc3c(cnn3-c3ccccc3)c(=O)n2-c2ccccc2)cc1 | 80% | – | 50 nM
Cc1nc(Nc2ncc(C(=O)Nc3c(C)cccc3Cl)s2)cc(N2CCN(CCO)CC2)n1 [DASATINIB] | – | – | 250 nM
O=C(NNc1nc2c(cnn2-c2ccccc2)c(=O)n1-c1ccccc1)c1ccc(Cl)cc1 | – | – | 860 nM
O=c1c2cnn(-c3ccccc3)c2nc(N/N=C/c2ccc(F)cc2)n1-c1ccccc1 | – | 110000 nM | 4060 nM
NNc1nc2c(cnn2-c2ccccc2)c(=O)n1-c1ccccc1 | – | – | 2370 nM
